Laboratory results published in patent US12139487B2, “Compounds and uses thereof” (Foghorn Therapeutics Inc., priority 2022, dated 2024).

Tested on: BRM-dependent transcription (BRG1 mutant lung cancer cell line A549)
Test: BRM-dependent transcription, MMTV luciferase reporter in BRG1 mutant A549 cells
Type: cell-based
Details: Table 11; for IC50: A549-MMTV luciferase reporter, dexamethasone induced, 6 hours; for Ratio (MDA-MMTV IC50 (μM) divided by A549-MMTV IC50 (μM)): MMTV luciferase reporter cell lines, selectivity BRG1/BRM
Method: The potential inhibitory effects of compounds on BRG1 and BRM dependent transcription was study by testing the activity of against the BRG1 mutant lung cancer cell line A549 and a MDA cell line with BRM removed by CRISPR. Both cell lines were genetically engineered with a BRG1 or BRM-dependent mouse mammary tumor virus luciferase reporter. Luciferase transcription was induced by dexamethasone in the presence of compound at different concentrations and luminescence was measured using a plate reader 6 hours after stimulation.

Structure (SMILES) | IC50 [µM] | Ratio (MDA-MMTV IC50 (μM) divided by A549-MMTV IC50 (μM)) | IC50 (Homo sapiens, A549, 6 h) [µM]
O=C(NCc1cc2nc(-c3ccc(OC(F)F)c(C4CC4)n3)ccc2cn1)c1cc(Cl)c2c(c1)S(=O)(=O)[C@@H](F)CCO2 [Compound 357] | 0.0124 | 22.68 | 
CCOc1cccc(-c2ccc3cnc(CNC(=O)c4cc(F)c5c(c4)S(=O)(=O)[C@@H](F)CCO5)cc3n2)n1 [Compound 358] |  | 27.40 | 0.0153
CCOc1cccc(-c2ccc3cnc(CNC(=O)c4cc(Cl)c5c(c4)S(=O)(=O)[C@@H](F)CCO5)cc3n2)n1 [Compound 359] |  | 29.73 | 0.0188
COc1nc(-c2ccc3cnc(CNC(=O)c4cc(Cl)c5c(c4)S(=O)(=O)[C@@H](F)CCO5)cc3n2)ccc1C(F)F [Compound 360] |  | 23.20 | 0.0199
O=C(NCc1cc2nc(-c3cccc(OC(F)(F)F)n3)ccc2cn1)c1cc(F)c2c(c1)S(=O)(=O)[C@@H](F)CCO2 [Compound 361] |  | 22.13 | 0.0179
O=C(NCc1cc2nc(-c3cccc(OC(F)(F)Cl)n3)ccc2cn1)c1cc(Cl)c2c(c1)S(=O)(=O)[C@@H](F)CCO2 [Compound 362] |  | 31.16 | 0.0222
COc1nc([C@](C)(F)C(F)F)ccc1-c1ccc2cnc(CNC(=O)c3cc(F)c4c(c3)S(=O)(=O)[C@@H](F)CCO4)cc2n1 [Compound 363] |  | 22.45 | 0.0169
O=C(NCc1cc2nc(-c3cccc(C4CC4)n3)ccc2cn1)c1ccc2c(c1)S(=O)(=O)[C@@H](F)CCOC2 [Compound 364] |  | 22.21 | 0.0019
COc1nc(C(F)F)ccc1-c1ccc2cnc(CNC(=O)c3cc(Br)c4c(c3)S(=O)(=O)[C@@H](F)CCO4)cc2n1 [Compound 365] |  | 24.82 | 0.0213
COc1nc([C@@H](C)C(F)F)ccc1-c1ccc2cnc(CNC(=O)c3cc(F)c4c(c3)S(=O)(=O)[C@@H](F)CCO4)cc2n1 [Compound 366] |  | 29.97 | 0.0241
COc1nc([C@](C)(F)C(F)F)ccc1-c1ccc2cnc(CNC(=O)c3cc(F)c4c(c3)S(=O)(=O)[C@@H](F)CCOC4)cc2n1 [Compound 367] |  | 17.70 | 0.003
COc1nc([C@@](C)(F)C(F)F)ccc1-c1ccc2cnc(CNC(=O)c3cc(F)c4c(c3)S(=O)(=O)[C@@H](F)CCOC4)cc2n1 [Compound 368] |  | 17.34 | 0.0022
COc1ccc(-c2ccc3cnc(CNC(=O)c4cc(Cl)c5c(c4)S(=O)(=O)[C@@H](F)CCO5)cc3n2)nc1C1CC1(F)F (stereo partly shown) [Compound 369] |  | 26.85 | 0.0171
CCOc1ccc(-c2ccc3cnc(CNC(=O)c4cc(Cl)c5c(c4)S(=O)(=O)[C@@H](F)CCO5)cc3n2)nc1C1CC1(F)F (stereo partly shown) [Compound 370] |  | 27.27 | 0.0205
O=C(NCc1cc2nc(-c3ccc(C(F)F)c(C4CC4)n3)ccc2cn1)c1cc(Cl)c2c(c1)S(=O)(=O)[C@@H](F)CCO2 [Compound 371] |  | 21.86 | 0.0079
C[C@@H]1CN(c2cccc(-c3ccc4cnc(CNC(=O)c5cc(C#N)c6c(c5)S(=O)(=O)[C@@H](F)CCO6)cc4n3)n2)C[C@H](C)O1 [Compound 372] |  | 21.84 | 0.0076
O=C(NCc1cc2nc(-c3cnc(OC(F)F)c(C4CC4)n3)ccc2cn1)c1cc(F)c2c(c1)S(=O)(=O)[C@@H](F)CCO2 [Compound 373] |  | 23.16 | 0.0149
[2H]C1([2H])Oc2c(F)cc(C(=O)NCc3cc4nc(-c5ccc(OCC)c(C6CC6(F)F)n5)ccc4cn3)cc2S(=O)(=O)[C@@]([2H])(F)C1([2H])[2H] (stereo partly shown) [Compound 374] |  | 54.50 | 0.0178
CCOc1nc([C@H](C)F)ccc1-c1ccc2cnc(CNC(=O)c3cc(F)c4c(c3)S(=O)(=O)[C@@H](F)CCO4)cc2n1 [Compound 375] |  | 36.69 | 0.0065

Structure (SMILES) | IC50 [µM] | Ratio (MDA-MMTV IC50 (μM) divided by A549-MMTV IC50 (μM)) | IC50 (Homo sapiens, A549, 6 h) [µM]
CCOc1nc([C@@H](C)F)ccc1-c1ccc2cnc(CNC(=O)c3cc(F)c4c(c3)S(=O)(=O)[C@@H](F)CCO4)cc2n1 [Compound 376] |  | 22.09 | 0.0153
[2H]C([2H])([2H])C([2H])([2H])Oc1ccc(-c2ccc3cnc(CNC(=O)c4cc(F)c5c(c4)S(=O)(=O)[C@@]([2H])(F)C([2H])([2H])C([2H])([2H])O5)cc3n2)nc1C1CC1(F)F (stereo partly shown) [Compound 378] |  | 43.63 | 0.0111
[2H]C1([2H])OC([2H])([2H])[C@H](F)S(=O)(=O)c2cc(C(=O)NCc3cc4nc(-c5cccc(OC(F)F)n5)ccc4cn3)cc(F)c21 [Compound 379] |  | 22.55 | 0.02
COc1nc([C@H](F)CF)ccc1-c1ccc2cnc(CNC(=O)c3cc(Cl)c4c(c3)S(=O)(=O)[C@@H](F)COC4)cc2n1 [Compound 380] |  | 33.44 | 0.0091
COc1nc([C@@H](F)CF)ccc1-c1ccc2cnc(CNC(=O)c3cc(Cl)c4c(c3)S(=O)(=O)[C@@H](F)COC4)cc2n1 [Compound 381] |  | 29.06 | 0.0068
COc1nc([C@@H](F)CF)ccc1-c1ccc2cnc(CNC(=O)c3cc(Cl)c4c(c3)S(=O)(=O)[C@@H](F)CCO4)cc2n1 [Compound 382] |  | 40.88 | 0.0096
COc1nc([C@@H](F)CF)ccc1-c1ccc2cnc(CNC(=O)c3cc(Br)c4c(c3)S(=O)(=O)[C@@H](F)CCO4)cc2n1 [Compound 383] |  | 24.64 | 0.0218
[2H]C([2H])([2H])Oc1nc([C@H](C)F)ccc1-c1ccc2cnc(CNC(=O)c3cc(F)c4c(c3)S(=O)(=O)[C@@H](F)CCO4)cc2n1 [Compound 384] |  | 29.60 | 0.0064
Cc1cc(C(=O)NCc2cc3nc(-c4ccc(C(F)F)c(C5CC5)n4)ccc3cn2)cc2c1OCC[C@H](F)S2(=O)=O [Compound 385] |  | 22.49 | 0.0209
O=C(NCc1cc2nc(-n3cc(F)c(OC4CC4)n3)ccc2cn1)c1cc(F)c2c(c1)S(=O)(=O)[C@@H](F)CCO2 [Compound 386] |  | 23.22 | 0.026
O=C(NCc1cc2nc(-c3cccc(OCC(F)F)n3)ccc2cn1)c1cc(Cl)c2c(c1)S(=O)(=O)[C@@H](F)COC2 [Compound 387] |  | 34.06 | 0.0173
COc1nc(OC(F)F)ccc1-c1ccc2cnc(CNC(=O)c3cc(F)c4c(c3)S(=O)(=O)[C@@H](F)CCO4)cc2n1 [Compound 388] |  | 26.43 | 0.0073
C[C@H](F)c1ccc(-c2ccc3cnc(CNC(=O)c4cc(F)c5c(c4)S(=O)(=O)[C@@H](F)CCO5)cc3n2)c(OC(F)F)n1 [Compound 389] |  | 26.77 | 0.0032
CCOc1nc([C@H](F)CF)ccc1-c1ccc2cnc(CNC(=O)c3cc(F)c4c(c3)S(=O)(=O)[C@@H](F)CCO4)cc2n1 [Compound 390] |  | 22.68 | 0.0074
O=C(NCc1cc2nc(-c3ccc([C@@H](F)CF)nc3OC(F)F)ccc2cn1)c1cc(F)c2c(c1)S(=O)(=O)[C@@H](F)CCO2 [Compound 391] |  | 24.21 | 0.0021
O=C(NCc1cc2nc(-c3ccc([C@H](F)CF)nc3OC(F)F)ccc2cn1)c1cc(F)c2c(c1)S(=O)(=O)[C@@H](F)CCO2 [Compound 392] |  | 24.22 | 0.0047
C#Cc1cc(C(=O)NCc2cc3nc(-c4cccc(N5C[C@@H](C)O[C@@H](C)C5)n4)ccc3cn2)cc2c1COC[C@H](F)S2(=O)=O [Compound 393] |  | 36.31 | 0.0203
[2H]C([2H])([2H])Oc1nc([C@H](F)CF)ccc1-c1ccc2cnc(CNC(=O)c3cc(F)c4c(c3)S(=O)(=O)[C@@H](F)CCO4)cc2n1 [Compound 394] |  | 24.90 | 0.0092
CCOc1nc([C@H](C)F)ccc1-c1ccc2cnc(CNC(=O)c3cc(F)c4c(c3)S(=O)(=O)[C@@H](F)COC4)cc2n1 [Compound 395] |  | 21.65 | 0.0047
